Data from PubChem BioAssay AID248 (DTP/NCI, 2004).
“And” between values parts separate entries of the source, which are not always exact repeats. Equal values may be shown once. Toxic doses and inconclusive results are not listed. Cut-off read from the data, not from the text of the source: active = T/C of 150% or more; inactive = T/C below 125%.

System: L1210 leukemia ip in BDF1 mice, survival T/C
Assay: NCI In Vivo Anticancer Drug Screen. Data for tumor model L1210 Leukemia (intraperitoneal) in B6D2F1 (BDF1) mice
Details: endpoint: mean survival time, higher = longer survival
Procedure, shortened: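 Each compound was tested against a transplantable tumor grown in mice. The endpoint was survival, with treated animals benchmarked against vehicle controls as a simple ratio.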

[1] = dose: 100.0 mg/kg/injection, schedule: Q01DX009 (ip), vehicle: Klucel (hydroxypropylcellulose) (HPC)
[2] = dose: 100.0 mg/kg/injection, schedule: Q04DX003 (ip), vehicle: saline with Tween-80
[3] = dose: 200.0 mg/kg/injection, schedule: Q01DX009 (ip), vehicle: Klucel (hydroxypropylcellulose) (HPC)
[4] = dose: 200.0 mg/kg/injection, schedule: Q04DX003 (ip), vehicle: saline with Tween-80
[5] = dose: 400.0 mg/kg/injection, schedule: Q01DX009 (ip), vehicle: Klucel (hydroxypropylcellulose) (HPC)
[6] = dose: 400.0 mg/kg/injection, schedule: Q04DX003 (ip), vehicle: saline with Tween-80
[7] = dose: 100.0 mg/kg/injection, schedule: Q01DX001 (ip), vehicle: saline
[8] = dose: 200.0 mg/kg/injection, schedule: Q01DX001 (ip), vehicle: saline
[9] = dose: 400.0 mg/kg/injection, schedule: Q01DX001 (ip), vehicle: saline
[10] = dose: 100.0 mg/kg/injection, schedule: Q04DX003 (ip), vehicle: saline
[11] = dose: 200.0 mg/kg/injection, schedule: Q04DX003 (ip), vehicle: saline
[12] = dose: 400.0 mg/kg/injection, schedule: Q04DX003 (ip), vehicle: saline
[13] = dose: 100.0 mg/kg/injection, schedule: Q01DX001 (ip), vehicle: carboxymethylcellulose (CMC)
[14] = dose: 200.0 mg/kg/injection, schedule: Q01DX001 (ip), vehicle: carboxymethylcellulose (CMC)
[15] = dose: 400.0 mg/kg/injection, schedule: Q01DX001 (ip), vehicle: carboxymethylcellulose (CMC)
[16] = dose: 12.5 mg/kg/injection, schedule: Q01DX009 (ip), vehicle: saline with Tween-80

Measured: T/C

O=C1C=CC(=O)N1CO
inactive: dose: 2.5 mg/kg/injection, schedule: Q01DX009 (ip), vehicle: saline 91 % of control | dose: 2.5 mg/kg/injection, schedule: Q04DX003 (ip), vehicle: saline 96 % of control | dose: 5.0 mg/kg/injection, schedule: Q01DX009 (ip), vehicle: saline 94 % of control | dose: 5.0 mg/kg/injection, schedule: Q04DX003 (ip), vehicle: saline 98 % of control | dose: 10.0 mg/kg/injection, schedule: Q04DX003 (ip), vehicle: saline 91 % of control

CC1=CC(=O)C(C(O)(C(F)(F)Cl)C(F)(F)Cl)C(C)(C)C1 (stereo unspecified)
inactive: [1] 98 % of control | [2] 102 % of control | [3] 103 % of control | [4] 96 % of control | [5] 97 % of control | [6] 109 % of control

O=[N+]([O-])c1ccc(NN=C2c3ccccc3Cc3ccccc32)c([N+](=O)[O-])c1
inactive: dose: 100.0 mg/kg/injection, schedule: Q04DX002 (ip), vehicle: saline with Tween-80 87 % of control | dose: 400.0 mg/kg/injection, schedule: Q04DX002 (ip), vehicle: saline with Tween-80 94 % of control

Cc1ccc(NC(=S)NC(=O)C(C)Oc2ccccc2)cc1Cl (stereo unspecified)
inactive: [1] 94 % of control | dose: 100.0 mg/kg/injection, schedule: Q04DX003 (ip), vehicle: Klucel (hydroxypropylcellulose) (HPC) 100 % of control | [3] 101 % of control | dose: 200.0 mg/kg/injection, schedule: Q04DX003 (ip), vehicle: Klucel (hydroxypropylcellulose) (HPC) 101 % of control | [5] 101 % of control | dose: 400.0 mg/kg/injection, schedule: Q04DX003 (ip), vehicle: Klucel (hydroxypropylcellulose) (HPC) 109 % of control

CNC(=O)O/N=C\C=N\OC(=O)NC
inactive: [7] 93 % of control | [8] 98 % of control | [9] 95 % of control

CCCCCCC(C)NCCOC(=O)c1ccc(N)cc1 (stereo unspecified)
inactive: dose: 38.0 mg/kg/injection, schedule: Q04DX003 (ip), vehicle: other 104 % of control | dose: 75.0 mg/kg/injection, schedule: Q01DX001 (ip), vehicle: other 106 % of control and 98 % of control | dose: 75.0 mg/kg/injection, schedule: Q01DX001 (ip), vehicle: saline 96 % of control and 100 % of control | dose: 75.0 mg/kg/injection, schedule: Q04DX003 (ip), vehicle: other 104 % of control | dose: 150.0 mg/kg/injection, schedule: Q01DX001 (ip), vehicle: other 98 % of control and 93 % of control | dose: 150.0 mg/kg/injection, schedule: Q01DX001 (ip), vehicle: saline 91 % of control

Cc1cccc2c(=O)c3ccccc3oc12
inactive: [7] 98 % of control and 104 % of control | [8] 95 % of control and 101 % of control | [9] 93 % of control and 97 % of control

CC(C)(C)C1CCCC(=O)C1 (stereo unspecified)
inactive: dose: 50.0 mg/kg/injection, schedule: Q01DX001 (ip), vehicle: saline 101 % of control | [7] 89 % of control

C=CCNc1ccnc(SCc2ccccc2)n1
inactive: dose: 100.0 mg/kg/injection, schedule: Q01DX009 (ip), vehicle: gum acacia 93 % of control | dose: 100.0 mg/kg/injection, schedule: Q04DX003 (ip), vehicle: gum acacia 97 % of control | dose: 200.0 mg/kg/injection, schedule: Q01DX009 (ip), vehicle: gum acacia 110 % of control | dose: 200.0 mg/kg/injection, schedule: Q04DX003 (ip), vehicle: gum acacia 97 % of control | dose: 400.0 mg/kg/injection, schedule: Q01DX009 (ip), vehicle: gum acacia 97 % of control | dose: 400.0 mg/kg/injection, schedule: Q04DX003 (ip), vehicle: gum acacia 92 % of control

CCCCSC1CC(=O)N(CCCC)C1=O (stereo unspecified)
inactive: dose: 75.0 mg/kg/injection, schedule: Q04DX003 (ip), vehicle: saline with Tween-80 100 % of control | dose: 100.0 mg/kg/injection, schedule: Q01DX001 (ip), vehicle: saline with Tween-80 103 % of control | dose: 150.0 mg/kg/injection, schedule: Q04DX003 (ip), vehicle: saline with Tween-80 90 % of control | dose: 200.0 mg/kg/injection, schedule: Q01DX001 (ip), vehicle: saline with Tween-80 98 % of control | dose: 300.0 mg/kg/injection, schedule: Q04DX003 (ip), vehicle: saline with Tween-80 92 % of control | dose: 400.0 mg/kg/injection, schedule: Q01DX001 (ip), vehicle: saline with Tween-80 101 % of control

CCCCCCCC(=O)Nc1ccc(C)c(C)c1
inactive: [2] 93 % of control | [4] 98 % of control | [6] 93 % of control

Cc1ccccc1-n1nnc2ccccc2c1=O
inactive: [7] 95 % of control | [10] 95 % of control | [8] 92 % of control | [11] 115 % of control | [9] 89 % of control | [12] 88 % of control

CCCNC(=O)Nc1ccc(Cl)cc1
inactive: [13] 103 % of control | [14] 98 % of control | [15] 95 % of control

Cc1ccc(Cl)c(OCc2cc(=O)[nH]c(=O)[nH]2)c1
inactive: dose: 10.0 mg/kg/injection, schedule: Q04DX003 (ip), vehicle: saline with Tween-80 101 % of control | dose: 20.0 mg/kg/injection, schedule: Q04DX003 (ip), vehicle: saline with Tween-80 92 % of control | dose: 40.0 mg/kg/injection, schedule: Q04DX003 (ip), vehicle: saline with Tween-80 95 % of control

Fc1cc(N(CCCl)CCCl)ccc1C=NCCCN=Cc1ccc(N(CCCl)CCCl)cc1F
inactive: [13] 95 % of control | [14] 95 % of control | [15] 111 % of control

O=S1(=O)OCc2ccccc21
inactive: dose: 50.0 mg/kg/injection, schedule: Q01DX009 (ip), vehicle: acetone 106 % of control | [13] 100 % of control | dose: 100.0 mg/kg/injection, schedule: Q01DX009 (ip), vehicle: acetone 97 % of control | [10] 100 % of control | [14] 100 % of control | [11] 94 % of control

Nc1ncnc(N)c1NC(=O)c1ccc(-c2ccccc2)cc1
inactive: [2] 91 % of control | [6] 86 % of control

Cc1ccc2ccc3c4ccccc4ccc3[n+]2c1
inactive: dose: 10.0 mg/kg/injection, schedule: Q01DX001 (ip), vehicle: saline 102 % of control | dose: 20.0 mg/kg/injection, schedule: Q01DX001 (ip), vehicle: saline 98 % of control

CC1(C)CC(=O)C(C)(C)C(=O)C1
inactive: dose: 6.25 mg/kg/injection, schedule: Q01DX009 (ip), vehicle: saline with Tween-80 103 % of control | [16] 98 % of control | dose: 25.0 mg/kg/injection, schedule: Q04DX003 (ip), vehicle: saline with Tween-80 102 % of control

CC(C)C(C(=O)O)(c1ccccc1)c1ccccc1
inactive: [10] 101 % of control | [11] 103 % of control | [12] 97 % of control

Cc1ccc(NC(=S)/C(=C(/[O-])c2ccc([N+](=O)[O-])cc2)[n+]2ccccc2)c(C)c1
inactive: [1] 101 % of control | [3] 97 % of control | [5] 95 % of control

O=P(c1ccccc1)(c1ccccc1)C1(O)CCCCC1Cl (stereo unspecified)
inactive: [7] 105 % of control | [8] 96 % of control | [9] 100 % of control

CN(CCC#N)c1ccc(C=C(C#N)C#N)cc1
inactive: [1] 92 % of control | [3] 95 % of control | [5] 97 % of control

C=CC1CCCCC1C=C (stereo unspecified)
inactive: [16] 104 % of control | dose: 25.0 mg/kg/injection, schedule: Q01DX009 (ip), vehicle: saline with Tween-80 102 % of control | dose: 50.0 mg/kg/injection, schedule: Q01DX009 (ip), vehicle: saline with Tween-80 102 % of control
